Test results as given in patent US20230372318A1, “METHODS FOR TREATING A SUBJECT HAVING MULTIPLE SYSTEM ATROPHY” (Theravance Biopharma R&D IP, LLC, priority 2022, published 2023).

Test system: subjects with primary autonomic failures (MSA, PD, or PAF) and symptomatic nOH
Assay: Phase 3 22-week randomized withdrawal study in symptomatic nOH (Example 7)
Type: in vivo, human
Parameters: OHSA composite score, LS Mean / OHSA composite score, Mean / OHSA composite score, Median / OHSA composite score, LS Mean Difference / OHDAS item 1 (standing for a short time) score, Mean / OHDAS item 1 (standing for a short time) score, Median / OHDAS item 1 (standing for a short time) score, LS Mean / OHDAS item 1 (standing for a short time) score, LS Mean Difference: scale not given here
Conditions: for OHSA composite score, Mean / OHSA composite score, Median / OHSA composite score, LS Mean Difference / OHSA composite score, LS Mean: change at week 22, end of 6-week double-blind period; for OHDAS item 1 (standing for a short time) score, LS Mean / OHDAS item 1 (standing for a short time) score, Mean / OHDAS item 1 (standing for a short time) score, Median / OHDAS item 1 (standing for a short time) score, LS Mean Difference: week 22, end of 6-week double-blind period
Procedure: The study consisted of a 16-week open-label (OL) treatment period with ampreloxetine followed by a 6-week double-blind randomized withdrawal period where subjects were administered either ampreloxetine or placebo.
Eligible subjects were either (i) completers of the study of Example 6 (“Completers Group”), or (ii) symptomatic nOH subjects meeting all applicable study inclusion criteria and none of the applicable exclusion criteria (“De Novo Group”).
A 4-week screening period applied to the De Novo Group only and the Screening visit was conducted in clinic for all De Novo Group subjects.
A total of 203 subjects entered this study (170 subjects from Example 6 (85 from the ampreloxetine group and 85 from the placebo group) and 33 de novo subjects). During the OL period, 55 subjects discontinued treatment. At 16 weeks, 64 subjects were randomized to the ampreloxetine group (6 subjects discontinued the study) and 64 subjects were randomized to the placebo group (3 subjects discontinued the study). A total of 119 subjects completed the study. Of the 128 subjects entering the randomized period, 40 subjects had MSA (31%); 68 subjects had PD (53%); and 20 subjects had PAF (16%) (in each category, the subjects were split equally between ampreloxetine and placebo).
Beginning on Day 2, subjects received a single dose of 10 mg ampreloxetine once daily (QD) and continued thereafter for the 16-week duration of the OL treatment period. Following this 16-week OL treatment period, subjects were randomized to either continue on the active treatment or placebo (“PBO”) for a period of 6 weeks.
Subjects enrolled into the OL period of the study had visits scheduled for Day 15, Day 29, and every 4 weeks thereafter for assessments as outlined in the Schedule of Study Procedures. […] Those subjects not meeting this continuation criterion were discontinued and underwent an end of study visit. The end of study visit was completed within 2 weeks from the date of the last dose.
Following the completion of a total of 16 weeks OL treatment with ampreloxetine (V6), subjects were assessed for randomization in a 1:1 manner. Eligible subjects received 6 weeks of double-blind treatment of ampreloxetine or PBO once daily. Only subjects with OHSA #1 score of ≤7 were eligible for randomization for the double-blind treatment period.
Exploratory assessments included: orthostatic standing test; NMSS; EQ-5D-5L; HADS; and BSFC-s. For subjects with PD, exploratory assessments included: Unified Parkinson's Disease Rating Scale (UPDRS); and Parkinson's Disease Questionaire-8 (PDQ-8). For subjects with MSA, exploratory assessments included: Unified Multiple System Atrophy Rating Scale (UMSARS); and Composite Autonomic Symptom Score-31 (COMPASS-31).
The secondary endpoints included: • (a) Change from baseline in OHSA #1 at Week 6 post randomization (V9, D155); • (b) Change from baseline in OHSA composite score at Week 6 post randomization (V9, D155); • (c) Change from baseline in OHDAS composite score at Week 6 post randomization (V9, D155); • (d) Change from baseline in PGI-S at Week 6 post randomization (V9, D155); • (e) Change from baseline in percentage of time spent in standing position as measured by a wearable device at Week 6 post randomization (V9, D155); and • (f) Change from baseline in average number of steps taken as measured by a wearable device at Week 6 post randomization (V9, D155).

[1] = MSA subjects, Pre treatment baseline OHSA1 <7
[2] = MSA subjects, Pre treatment baseline OHSA1 >2
[3] = MSA subjects, Pre treatment baseline OHSA1 >=7
[4] = MSA subjects, Pre treatment baseline OHSA Composite <5.3
[5] = MSA subjects, Pre treatment baseline OHSA Composite >=5.3
[6] = MSA subjects, RW baseline OHSA1 <=2
[7] = MSA subjects, RW baseline OHSA Composite <2.5
[8] = MSA subjects, RW baseline OHSA Composite >=2.5
[9] = MSA subjects, UMSARS Part IV <4
[10] = MSA subjects, UMSARS Part IV <4, vs placebo
[11] = MSA subjects, UMSARS Part IV >=4
[12] = MSA subjects, UMSARS Part IV >=4, vs placebo
[13] = MSA subjects, nOH onset <1.6 years
[14] = MSA subjects, nOH onset <1.6 years, vs placebo
[15] = MSA subjects, nOH onset >=1.6 years
[16] = MSA subjects, nOH onset >=1.6 years, vs placebo
[17] = MSA subjects, end of 6-week double-blind randomized period, FIG. 3
[18] = MSA subjects, week 22, 10 mg, N 19

Fc1cc(F)c(OCc2ccccc2C2CCNCC2)c(F)c1 [Ampreloxetine, 4-[2-(2,4,6-trifluorophenoxymethyl)phenyl]piperidine]
OHSA composite score, Mean [1]: −0.11 | OHSA composite score, Median [1]: −0.1 | OHSA composite score, LS Mean Difference (MSA subjects, Pre treatment baseline OHSA1 <7, vs placebo): −1.08 | OHSA composite score, LS Mean [2]: −0.77 | OHSA composite score, Mean [2]: −0.96 | OHSA composite score, Median [2]: −0.6 | OHSA composite score, LS Mean Difference (MSA subjects, Pre treatment baseline OHSA1 >2, vs placebo): −1.99 | OHSA composite score, LS Mean [3]: 0.41 | OHSA composite score, Mean [3]: 0.00 | OHSA composite score, Median [3]: 0.5 | OHSA composite score, LS Mean Difference (MSA subjects, Pre treatment baseline OHSA1 >=7, vs placebo): −1.31 | OHSA composite score, LS Mean [4]: −0.71 | OHSA composite score, Mean [4]: −0.56 | OHSA composite score, Median [4]: −0.05 | OHSA composite score, LS Mean Difference (MSA subjects, Pre treatment baseline OHSA Composite <5.3, vs placebo): −1.96 | OHSA composite score, LS Mean [5]: 0.76 | OHSA composite score, Mean [5]: 0.46 | OHSA composite score, Median [5]: 0.3 | OHSA composite score, LS Mean Difference (MSA subjects, Pre treatment baseline OHSA Composite >=5.3, vs placebo): −0.97 | OHSA composite score, LS Mean [6]: 0.74 | OHSA composite score, Mean [6]: 0.86 | OHSA composite score, Median [6]: 0.25 | OHSA composite score, LS Mean Difference (MSA subjects, RW baseline OHSA1 <=2, vs placebo): −0.91 | OHSA composite score, LS Mean [7]: 0.95 | OHSA composite score, Mean [7]: 0.98 | OHSA composite score, Median [7]: 0.4 | OHSA composite score, LS Mean Difference (MSA subjects, RW baseline OHSA Composite <2.5, vs placebo): −0.90 | OHSA composite score, LS Mean [8]: −0.92 | OHSA composite score, Mean [8]: −0.90 | OHSA composite score, Median [8]: −0.5 | OHSA composite score, LS Mean Difference (MSA subjects, RW baseline OHSA Composite >=2.5, vs placebo): −1.96 | OHSA composite score, LS Mean [9]: 0.01 | OHSA composite score, Mean [9]: −0.04 | OHSA composite score, Median [9]: 0.25 | OHSA composite score, LS Mean Difference [10]: −1.70 | OHDAS item 1 (standing for a short time) score, LS Mean [9]: −0.3 | OHDAS item 1 (standing for a short time) score, Mean [9]: −0.3 | OHDAS item 1 (standing for a short time) score, Median [9]: 0.0 | OHDAS item 1 (standing for a short time) score, LS Mean Difference [10]: −2.8 | OHSA composite score, LS Mean [11]: −0.17 | OHSA composite score, Mean [11]: −0.15 | OHSA composite score, Median [11]: −0.15 | OHSA composite score, LS Mean Difference [12]: −1.44 | OHDAS item 1 (standing for a short time) score, LS Mean [11]: 0.5 | OHDAS item 1 (standing for a short time) score, Mean [11]: 1.0 | OHDAS item 1 (standing for a short time) score, Median [11]: 1.0 | OHDAS item 1 (standing for a short time) score, LS Mean Difference [12]: 1.9 | OHSA composite score, LS Mean [13]: 0.48 | OHSA composite score, Mean [13]: 0.43 | OHSA composite score, Median [13]: 0.50 | OHSA composite score, LS Mean Difference [14]: −1.33 | OHDAS item 1 (standing for a short time) score, LS Mean [13]: −0.3 | OHDAS item 1 (standing for a short time) score, Mean [13]: −0.3 | OHDAS item 1 (standing for a short time) score, Median [13]: 0.0 | OHDAS item 1 (standing for a short time) score, LS Mean Difference [14]: −2.4 | OHSA composite score, LS Mean [15]: −0.45 | OHSA composite score, Mean [15]: −0.41 | OHSA composite score, Median [15]: −0.20 | OHSA composite score, LS Mean Difference [16]: −1.56 | OHDAS item 1 (standing for a short time) score, LS Mean [15]: −0.3 | OHDAS item 1 (standing for a short time) score, Mean [15]: −0.1 | OHDAS item 1 (standing for a short time) score, Median [15]: 0.0 | OHDAS item 1 (standing for a short time) score, LS Mean Difference [16]: −0.8 | OHDAS composite score, change (MSA subjects, 6-week double-blind randomized period, placebo +0.97, p=0.196): +0.16 | Systolic blood pressure upon standing for 3 minutes, mean change (MSA subjects, 6-week double-blind randomized period, placebo −12.4): +6.1 mmHg | Quality of life, EQ-5D-5L visual analog scale (MSA subjects, FIG. 4, vs placebo): quality of life declines less or improves | OHDAS walking long time [17]: favor placebo | OHSA and OHDAS composite scores and individual subscores [17]: all favor ampreloxetine | OHSA item 1 score, change (MSA subjects, end of 6-week double-blind randomized withdrawal period, placebo +1.8, p=0.0861): +0.3 | Anxiety Total Score, Change from Baseline, LS Mean Difference (SE) (MSA subjects, week 22, 10 mg vs placebo, P-value 0.0343): −1.26 (0.573) | Anxiety Total Score, Change from Baseline, LS Mean (SE) [18]: −1.05 (0.405) | Anxiety Total Score, Change from Baseline, Mean (SD) [18]: −1.05 (1.900) | Anxiety Total Score, Change from Baseline, Median [18]: −1.00 | OHQ composite scores for subgroups (subgroups of MSA subjects, week 22, FIG. 6): all favored ampreloxetine
